According to US20240148821A1, “PHARMACEUTICAL USE OF CYCLIC PEPTIDE COMPOUND” (CHUGAI SEIYAKU KABUSHIKI KAISHA, priority 2021, published 2024):
pIC50: −log10 of the molar value. Numbered stars: 1 amine (or outer) side, 2 acyl side, 3 side chain; on linkers, the order of the positions; unused ones are H or OH. Bridge positions count the residues as written; N and C are the ends. Square brackets hold non-standard residues; d marks the D form. Peptide text beside a SMILES is read from it. * marks the point of attachment. hPhe(3,5-F2-4-CF3) = N[C@@H](CCc1cc(F)c(C(F)(F)F)c(F)c1)C(=O)O; hPhe(3-Cl-4-CF3) = N[C@@H](CCc1ccc(C(F)(F)F)c(Cl)c1)C(=O)O; hPhe(3-F,4-CF3) = N[C@@H](CCc1ccc(C(F)(F)F)c(F)c1)C(=O)O; NMePhe(4-CF3) = CN[C@@H](Cc1ccc(C(F)(F)F)cc1)C(=O)O; NEtPhe(4-Me) = CCN[C@@H](Cc1ccc(C)cc1)C(=O)O; NMeAbu(4,4,4-F3) = CN[C@@H](CC(F)(F)F)C(=O)O; NMePhe(4-Cl) = CN[C@@H](Cc1ccc(Cl)cc1)C(=O)O; NMedβ3hAla = C[C@H](CC(=O)[*:2])N(C)[*:1]; NMeAla(cPent) = CN[C@@H](CC1CCCC1)C(=O)O; NMeGly(cPent) = CN[C@H](C(=O)O)C1CCCC1; NMeGly(cBu) = CN[C@H](C(=O)O)C1CCC1; NMeCha = CN[C@@H](CC1CCCCC1)C(=O)O; Hyp = O=C(O)[C@@H]1C[C@@H](O)CN1; NMeChg = CN[C@H](C(=O)O)C1CCCCC1; NMeI = CC[C@H](C)[C@H](NC)C(=O)O; NMeD = CN[C@@H](CC(=O)O)C(=O)O; NMeL = CN[C@@H](CC(C)C)C(=O)O; Chg = N[C@H](C(=O)O)C1CCCCC1; Azetidin(1-yl) = C1CN(*)C1; Morpholide = C1CN(*)CCO1; NMeA = CN[C@@H](C)C(=O)O; NMeAib = CNC(C)(C)C(=O)O; Pyrrolidide = C1CCN(*)C1; Ac5c = NC1(C(=O)O)CCCC1; Aze = O=C(O)[C@@H]1CCN1; NEtG = CCNCC(=O)O; Sar = CNCC(=O)O

Experiments:
[1] = target: protein-protein interaction between Kras and SOS1 (biotin-tagged human Kras loaded with GDP, His-tagged human SOS1) (Homo sapiens (Human), UniProt P01116, G12D); test: Protein-protein interaction inhibition between Kras and SOS1 (KrasG12D-SOS PPI) using AlphaScreen; type: biochemical; details: AlphaScreen; biotin-tagged human Kras loaded with GDP, His-tagged human SOS1; read-out: KRAS G12D-SOS PPI IC50;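 note: kras produced in E. coli, Ni-coupled donor beads and streptavidin acceptor beads, excitation 680 nm with emission detected at 520–620 nm via singlet oxygen transfer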
[2] = tested on: Human pancreatic cancer cell line AsPC-1 (G12D mutation Kras); test: AsPC-1 cell growth inhibition (AsPC-1 CGI); type: cell-based; details: read-out: AsPC-1 cell growth inhibition, 50% growth inhibitory concentration (IC50 value); 96 hours, CellTiter-Glo, values classified in ranges

Structure (SMILES) | pIC50 [1] | pIC50 [2]
CC(C)C[C@@H]1NC(=O)C(C)(C)N(C)C(=O)[C@H](CC(C)C)NC(=O)[C@H](CCc2ccc(C(F)(F)F)c(F)c2)NC(=O)CN(C)C(=O)[C@H](Cc2ccc(Cl)cc2)N(C)C(=O)CN(C)C(=O)CN(C)C(=O)[C@H](C2CCCCC2)NC(=O)[C@H](CC(C)C)N(C)C(=O)C[C@@H](C)N(C)C1=O [Compound 1133] (cyclo([Chg][Sar][Sar][NMePhe(4-Cl)][Sar][hPhe(3-F,4-CF3)]L[NMeAib]L[NMedβ3hAla][NMeL])) | 7.25 | < 6.30
CCO[C@@H]1C[C@H]2C(=O)NC3(CCCC3)C(=O)N(C)[C@@H](C3CCCCC3)C(=O)N(C)[C@H](C(=O)N3CCCC3)CC(=O)N(C)[C@@H](C3CCC3)C(=O)N[C@@H]([C@@H](C)CC)C(=O)N(C)CC(=O)N(C)CC(=O)N(C)[C@@H](CC3CCCCC3)C(=O)N(C)CC(=O)N[C@@H](CCc3cc(F)c(C(F)(F)F)c(F)c3)C(=O)N2C1 [Compound 1144] ([NMeGly(cBu)]I[Sar][Sar][NMeCha][Sar][hPhe(3,5-F2-4-CF3)][Hyp](Et)[Ac5c][NMeChg][NMeD]-Pyrrolidide; lactam N-11) | 9.31 | ≥ 7.70
CCO[C@@H]1C[C@H]2C(=O)NC3(CCCC3)C(=O)N(C)[C@@H](C3CCCCC3)C(=O)N(C)[C@H](C(=O)N3CCCC3)CC(=O)N(C)[C@@H](CC(F)(F)F)C(=O)N[C@@H]([C@@H](C)CC)C(=O)N(C)CC(=O)N(C)CC(=O)N(C)[C@@H](CC3CCCCC3)C(=O)N(C)CC(=O)N[C@@H](CCc3cc(F)c(C(F)(F)F)c(F)c3)C(=O)N2C1 [Compound 1149] ([NMeAbu(4,4,4-F3)]I[Sar][Sar][NMeCha][Sar][hPhe(3,5-F2-4-CF3)][Hyp](Et)[Ac5c][NMeChg][NMeD]-Pyrrolidide; lactam N-11) | 9.21 | ≥ 7.70
CC[C@H](C)[C@@H]1NC(=O)[C@H](CC(C)C)N(C)C(=O)C[C@@H](C(=O)N2CCOCC2)N(C)C(=O)[C@H]([C@@H](C)CC)N(C)C(=O)C2(CCCC2)NC(=O)[C@@H]2CCCN2C(=O)[C@H](CCc2ccc(C(F)(F)F)c(Cl)c2)NC(=O)CN(CC)C(=O)[C@H](Cc2ccc(C(F)(F)F)cc2)N(C)C(=O)[C@@H]2CCN2C(=O)[C@H](C)N(C)C1=O [Compound 1151] ([NMeL]I[NMeA][Aze][NMePhe(4-CF3)][NEtG][hPhe(3-Cl-4-CF3)]P[Ac5c][NMeI][NMeD]-Morpholide; lactam N-11) | 8.28 | ≥ 7.70
CC[C@H](C)[C@@H]1NC(=O)[C@H](CC(C)C)N(C)C(=O)C[C@@H](C(=O)N(C)C)N(C)C(=O)[C@H](C2CCCC2)N(C)C(=O)C2(CCCC2)NC(=O)[C@@H]2CCCN2C(=O)[C@H](CCc2ccc(C(F)(F)F)c(F)c2)NC(=O)CN(C)C(=O)[C@H](Cc2ccc(C)cc2)N(CC)C(=O)[C@@H]2CCN2C(=O)[C@H](C)N(C)C1=O [Compound 1152] ([NMeL]I[NMeA][Aze][NEtPhe(4-Me)][Sar][hPhe(3-F,4-CF3)]P[Ac5c][NMeGly(cPent)][NMeD]-NMe2; lactam N-11) | 8.92 | ≥ 7.70
CCO[C@@H]1C[C@H]2C(=O)NC3(CCCC3)C(=O)N(C)[C@@H](C3CCCC3)C(=O)N(C)[C@H](C(=O)N3CCC3)CC(=O)N(C)[C@@H](CC(C)C)C(=O)N[C@@H]([C@@H](C)CC)C(=O)N(C)[C@@H](C)C(=O)N3CC[C@H]3C(=O)N(C)[C@@H](CC3CCCCC3)C(=O)N(C)CC(=O)N[C@@H](CCc3ccc(C(F)(F)F)c(Cl)c3)C(=O)N2C1 [Compound 1158] ([NMeL]I[NMeA][Aze][NMeCha][Sar][hPhe(3-Cl-4-CF3)][Hyp](Et)[Ac5c][NMeGly(cPent)][NMeD]-{Azetidin(1-yl)}; lactam N-11) | 9.28 | ≥ 7.70
CCO[C@@H]1C[C@H]2C(=O)NC3(CCCC3)C(=O)N(C)[C@@H](C3CCCC3)C(=O)N(C)[C@H](C(=O)N3CCCC3)CC(=O)N(C)[C@@H](CC(C)C)C(=O)N[C@@H]([C@@H](C)CC)C(=O)N(C)CC(=O)N(C)CC(=O)N(C)[C@@H](CC3CCCCC3)C(=O)N(C)CC(=O)N[C@@H](CCc3cc(F)c(C(F)(F)F)c(F)c3)C(=O)N2C1 [Compound 1162] ([NMeL]I[Sar][Sar][NMeCha][Sar][hPhe(3,5-F2-4-CF3)][Hyp](Et)[Ac5c][NMeGly(cPent)][NMeD]-Pyrrolidide; lactam N-11) | 9.24 | ≥ 7.70
CC[C@H](C)[C@@H]1NC(=O)[C@H](CC(C)C)N(C)C(=O)C[C@@H](C(=O)N(C)C)N(C)C(=O)[C@H](C2CCCC2)N(C)C(=O)C2(CCCC2)NC(=O)[C@@H]2CCCN2C(=O)[C@H](CCc2cc(F)c(C(F)(F)F)c(F)c2)NC(=O)CN(C)C(=O)[C@H](CC2CCCCC2)N(C)C(=O)[C@@H]2CCN2C(=O)[C@H](C)N(C)C1=O [Compound 1170] ([NMeL]I[NMeA][Aze][NMeCha][Sar][hPhe(3,5-F2-4-CF3)]P[Ac5c][NMeGly(cPent)][NMeD]-NMe2; lactam N-11) | 9.27 | ≥ 7.70
CC[C@H](C)[C@@H]1NC(=O)[C@H](CC2CCCC2)N(C)C(=O)C[C@@H](C(=O)N2CCOCC2)N(C)C(=O)[C@H](C2CCCC2)N(C)C(=O)C2(CCCC2)NC(=O)[C@@H]2CCCN2C(=O)[C@H](CCc2ccc(C(F)(F)F)c(Cl)c2)NC(=O)CN(C)C(=O)[C@H](C2CCCC2)N(C)C(=O)[C@@H]2CCN2C(=O)[C@H](C)N(C)C1=O [Compound 1173] ([NMeAla(cPent)]I[NMeA][Aze][NMeGly(cPent)][Sar][hPhe(3-Cl-4-CF3)]P[Ac5c][NMeGly(cPent)][NMeD]-Morpholide; lactam N-11) | 9.13 | ≥ 7.70
